Data from patent publication US10640545B2 (THE GOVERNORS OF THE UNIVERSITY OF ALBERTA, priority 2017, dated 2020).
Where a SMILES comes first, the peptide text is derived from it. [ ]: non-standard residue; d: D form. Phe(4-Br) = N[C@@H](Cc1ccc(Br)cc1)C(=O)O; Nle = CCCC[C@H](N)C(=O)O; Aib = CC(C)(N)C(=O)O

Assays:
[1] = test system: KLKB1 (rhKLKB1, Novoprotein); experiment: Human plasma kallikrein KLKB1 in Tris buffer, KLKB1 concentration of 2 ng/pL; conditions: 37° C., up to 48 hours
[2] = test system: recombinant human neprilysin (rhNEP, Sino Biological); experiment: rhNEP diluted in Tris buffer (100 mM Tris, 100 mM NaCl, 10 μM ZnCl2, pH 7.5), 3.1 nM final concentration; conditions: 37° C., up to 72 h
[3] = test system: Angiotensin converting enzyme 2 (ACE2); experiment: in vitro and in vivo; conditions: cited from earlier work
[4] = target: neprilysin (NEP) (Homo sapiens, UniProt P08473); experiment: in vitro; conditions: human, pH 7.5
Chain of neprilysin (NEP) (P08473 whole entry, the tested form may be a part, canonical isoform): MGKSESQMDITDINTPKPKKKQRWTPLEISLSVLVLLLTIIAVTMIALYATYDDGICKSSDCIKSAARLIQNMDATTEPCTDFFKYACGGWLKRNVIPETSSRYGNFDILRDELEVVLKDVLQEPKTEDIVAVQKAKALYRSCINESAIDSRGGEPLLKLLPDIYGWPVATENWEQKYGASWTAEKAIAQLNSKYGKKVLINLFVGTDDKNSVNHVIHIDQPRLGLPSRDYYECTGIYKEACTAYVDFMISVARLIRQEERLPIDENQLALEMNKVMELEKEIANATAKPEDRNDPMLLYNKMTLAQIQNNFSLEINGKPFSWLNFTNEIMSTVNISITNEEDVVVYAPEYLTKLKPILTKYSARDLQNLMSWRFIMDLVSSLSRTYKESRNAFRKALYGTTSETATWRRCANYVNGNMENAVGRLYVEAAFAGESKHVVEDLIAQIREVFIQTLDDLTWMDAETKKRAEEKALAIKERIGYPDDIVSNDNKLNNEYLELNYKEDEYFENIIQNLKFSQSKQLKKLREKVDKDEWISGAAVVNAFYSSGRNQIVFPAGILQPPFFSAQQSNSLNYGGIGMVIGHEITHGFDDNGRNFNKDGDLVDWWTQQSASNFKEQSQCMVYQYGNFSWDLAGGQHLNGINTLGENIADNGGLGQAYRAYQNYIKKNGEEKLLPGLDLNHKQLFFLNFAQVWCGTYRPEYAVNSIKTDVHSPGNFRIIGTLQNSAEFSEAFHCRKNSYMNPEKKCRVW
Protocol: (§1) This experiment compared the in vitro NEP stability of the Arg/Leu peptides of the embodiments to native apelin isoforms and their A2 substituted counterparts. Peptides were incubated with recombinant human NEP (rhNEP, Sino Biological) at 37° C. for up to 72 h, and the extent of degradation was analyzed via LC-MS because of the overlapping elution patterns of peptide fragments. […] (McKinnie, S. M. K., et al. ChemBioChem: 17, 1495-1498 (2016)). […] (Dion, N., et al., Biochem. J.: 311, 623-627 (1995); Bateman Jr., R. C., et al., J. Biol. Chem.: 264, 6151-6157 (1989); McMurray, J. J. et al., J. Med.: 371, 993-1004 (2014)).
(§2) Apelin peptides were dissolved in Milli-Q water (1 mM). Recombinant human neprilysin (rhNEP, Sino Biological) was reconstituted in Tris buffer (100 mM Tris, 100 mM NaCl, 10 μM ZnCl2, pH 7.5). To initiate the assay, rhNEP was diluted in Tris buffer (3.1 nM final concentration), and preincubated at 37° C. for 10 minutes prior to the addition of 5 μL of apelin peptide (1 mM) and 1.5 μL internal standard dansyl-Tyr-Val-Gly-OH (1 mM). Aliquots (10 μL) were removed at 0, 1, 4, 24, and 72 h, quenched with 0.1 M EDTA (10 μL), diluted to 100 μL with Milli-Q water and analyzed by LC-MS. Assays were performed in triplicate (n=3) for each time point. Integrated peak areas of the parent apelin peptide and internal standard derived from LC-MS analyses, were extracted using Mass Hunter software (version B.04.00) and compared in positive extracted ion count modus (+EIC, extracted-ion chromatogram). […] (apelin:dansyl-YVG), to the same ratio at the different assay time points. The decrease in apelin:dansyl-YVG ratio was converted to a percentage of cleaved peptide over time.
(§3) The extent of degradation was analyzed via LC-MS because of the overlapping elution patterns of peptide fragments (NEP).
(§4) Native apelin-17 (2) and apelin peptides 5, 54, 56, 57, 58 and 59 were dissolved in Milli-Q water (1 mM). Recombinant human neprilysin (rhNEP, Sino Biological) was reconstituted in Tris buffer (100 mM Tris, 100 mM NaCl, 10 μM ZnCl2, pH 7.5). To initiate the assay, rhNEP was diluted in Tris buffer (3.1 nM final concentration) and preincubated at 37° C. for 10 min prior to the addition of 5 μL of apelin peptide (1 mM) and 1.5 μL of internal standard dansyl-Tyr-Val-Gly-OH (1 mM). Aliquots (10 μL) were removed at 0, 1, 4, 24, and 72 h, quenched with 0.1 M EDTA (10 μL), diluted to 100 μL with Milli-Q water, and analyzed by LC-MS. Assays were performed in triplicate (n=3) for each time point. Integrated peak areas of the parent apelin peptide and internal standard derived from LC-MS analyses were extracted using Mass Hunter software (version B.04.00) and compared in positive extracted ion count modus (+EIC). The extent of proteolysis was determined by comparing the initial (0 h) ratio of the integrated extracted ions of the parent apelin peptide to the internal dansyl-YVG standard (apelin/dansyl-YVG) to the same ratio at the different assay time points. The decrease in apelin/dansyl-YVG ratio was converted to a percentage of cleaved peptide over time.

[5] = target: Human plasma kallikrein KLKB1 (Homo sapiens, UniProt P03952); experiment: Plasma kallikrein KLKB1 qualitative cleavage assay (MALDI-TOF)
Chain of Human plasma kallikrein KLKB1 (P03952 20-638): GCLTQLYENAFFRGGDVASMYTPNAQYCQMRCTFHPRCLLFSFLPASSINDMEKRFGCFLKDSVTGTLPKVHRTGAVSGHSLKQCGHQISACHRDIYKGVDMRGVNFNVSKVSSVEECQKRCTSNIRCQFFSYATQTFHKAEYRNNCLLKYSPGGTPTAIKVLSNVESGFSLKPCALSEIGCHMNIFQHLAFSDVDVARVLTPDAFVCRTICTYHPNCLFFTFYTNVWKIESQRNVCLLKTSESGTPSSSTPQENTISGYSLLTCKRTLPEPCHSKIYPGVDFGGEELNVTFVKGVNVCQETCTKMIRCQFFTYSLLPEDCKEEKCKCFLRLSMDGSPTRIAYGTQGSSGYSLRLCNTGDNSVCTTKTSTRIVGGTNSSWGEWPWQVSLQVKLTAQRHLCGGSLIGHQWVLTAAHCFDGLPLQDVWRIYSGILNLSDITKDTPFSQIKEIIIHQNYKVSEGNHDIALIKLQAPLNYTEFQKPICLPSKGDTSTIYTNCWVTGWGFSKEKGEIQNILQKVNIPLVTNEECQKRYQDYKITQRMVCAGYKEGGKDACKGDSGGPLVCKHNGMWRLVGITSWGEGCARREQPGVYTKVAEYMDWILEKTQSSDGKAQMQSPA
Protocol: Native apelin-17 (2) and apelin peptides 5, 56, 57, 58 and 59 were dissolved in Milli-Q water (1 mM). Human plasma kallikrein KLKB1 were each reconstituted in Tris buffer (100 mM TrisHCl, 10 mM CaCl2), 150 mM NaCl) and diluted with Tris buffer (50 mM TrisHCl, 250 mM NaCl) to give a KLKB1 concentration of […]. The KLKB1 enzyme was then preincubated at 37° C. for 10 minutes prior to the addition of 5 μL of apelin peptide (1 mM). Aliquots (1 μL) were taken at 1, 2, 4, 6, 12, 24, 36, and 48 hours and analyzed with MALDI-TOF mass spectrometry to qualitatively determine the time point at which degradation products could be observed (Table 4).

[6] = target: T1, KLKB1 (plasma kallikrein) (Homo sapiens, UniProt P03952); experiment: In vitro KLKB1 stability (half-life); assay type: in vitro ADME; conditions: human
T1 construct: purchased Novoprotein
T1 sequence (P03952 20-638): as above

[7] = in vitro; conditions: human, plasma
[8] = target: KLKB1 (Homo sapiens, UniProt P03952); experiment: Kinetic parameters for KLKB1 cleavage; assay type: biochemical; set-up: purchased Novoprotein; conditions: enzyme KLKB1
Chain of KLKB1 (P03952 20-638): as above

[9] = target: NEP (Homo sapiens, UniProt P08473); experiment: Neprilysin degradation assay (LC-MS, quantitative); conditions: rhNEP, 37° C., up to 72 h, LC-MS
Chain of NEP (P08473 whole entry): as the sequence (P08473 whole entry, the tested form may be a part, canonical isoform) above
Protocol: as §1, §2, §3, §4

## Lys-Phe-Arg-Arg-Gln-Arg-Pro-Arg-NMeLeu-Ser-His-Lys-Gly-Pro-Nle-Aib-paraBrPhe
[1]
  cleaved bond: Arg3-Arg4
[2]
  cleaved bond: Nle15-Aib16, minor

## (Pyr)RPRLSHKGPMPF
[3]
  cleaved bond: Pro-Phe
[2]
  not cleaved: C-terminal dipeptide excision was not observed

## CCCC[C@H](NC(=O)[C@@H]1CCCN1C(=O)CNC(=O)[C@H](CCCCN)NC(=O)[C@H](Cc1c[nH]cn1)NC(=O)[C@H](CO)NC(=O)[C@H](CC(C)C)NC(=O)[C@H](CCCNC(=N)N)NC(=O)[C@@H]1CCCN1C(=O)[C@H](CCCNC(=N)N)NC(=O)[C@H](CCC(N)=O)NC(=O)[C@H](CCCNC(=N)N)NC(=O)[C@H](CCCNC(=N)N)NC(=O)[C@H](Cc1ccccc1)NC(=O)[C@@H](N)CCCCN)C(=O)NC(C)(C)C(=O)N[C@@H](Cc1ccc(Br)cc1)C(=O)O [Peptide 5] (H-KFRRQRPRLSHKGP[Nle][Aib][Phe(4-Br)]-OH; C-terminus assumed)
[4]
  half-life: 60 min
[5]
  Degradation Onset Timepoint with KLKB1: <30 min
[6]
  half-life: 42 min
[7]
  remaining at 0.5 h, 80 µM: 43 ± 1%
  remaining at 1 h, 80 µM: 35 ± 5%
[8]
  Km: 30 ± 4 µM
  kcat: 1.4 ± 0.2 s⁻¹

## LVQPRGSRNGPGPWQGGRRKFRR-QRPRLSHKGPMPF
[3]
  cleaved bond: Pro-Phe

## KFRRQRPRLSHKGPMPF
[3]
  cleaved bond: Pro-Phe
[1]
  cleaved bond: Arg3-Arg4, <30 min
[2]
  not cleaved: C-terminal dipeptide excision was not observed

## CSCC[C@H](NC(=O)[C@@H]1CCCN1C(=O)CNC(=O)[C@H](CCCCN)NC(=O)[C@H](Cc1cnc[nH]1)NC(=O)[C@H](CO)NC(=O)[C@H](CC(C)C)NC(=O)[C@H](CCCNC(=N)N)NC(=O)[C@@H]1CCCN1C(=O)[C@H](CCCNC(=N)N)NC(=O)[C@@H]1CCC(=O)N1)C(=O)N1CCC[C@H]1C(=O)N[C@@H](Cc1ccccc1)C(=O)O [Peptide 1, reference compound]
[9]
  in vitro NEP proteolytic stability (in words): degraded by NEP at rates comparable to those previously reported
